Assay results taken from ChEMBL document CHEMBL2311501, “Discovery and preliminary structure-activity relationship analysis of 1,14-sperminediphenylacetamides as potent and selective antimalarial lead compounds” (Bioorg Med Chem Lett, 2013).

Key:
L6 [1] = assay: Cytotoxicity against rat L6 cells at 10 uM after 72 hrs by Alamar blue assay; assay type: cell-based; details: l6, 72 h
L6 [2] = assay: Cytotoxicity against rat L6 cells after 72 hrs by Alamar blue assay; assay type: cell-based; details: L6, 72 h
Plasmodium falciparum = assay: Antiprotozoal activity against erythrocytic stages of Plasmodium falciparum K1 by [3H]hypoxanthine incorporation assay; assay type: functional, organism-based
Leishmania donovani = assay: Antiprotozoal activity against amastigote/ axenic stage of Leishmania donovani MHOM-ET-67/L82 after 72 hrs by Alamar blue assay; assay type: functional, organism-based; details: MHOM-ET-67/L82, 72 h
Trypanosoma cruzi = assay: Antiprotozoal activity against Trypanosoma cruzi Tulahuen C4 amastigotes after 96 hrs; assay type: functional, organism-based; details: Tulahuen C4, 96 h
[3] = system: Trypanosoma brucei rhodesiense; assay: Antiprotozoal activity against Trypanosoma brucei rhodesiense STIB 900 after 72 hrs by Alamar blue assay; assay type: functional, organism-based; details: STIB 900, 72 h

Compound | IC50 (Plasmodium falciparum) [µM] | IC50 (Trypanosoma cruzi) [µM] | IC50 [3] [µM] | Activity (L6 [1]) | IC50 (L6 [2]) [µM] | IC50 (Leishmania donovani) [µM]
COc1cc(CC(=O)NCCN(C)C)ccc1O | > 14 | > 250 | 170 |  | > 250 | > 250
O=C(Cc1ccccc1)NCCCCNC(=O)Cc1ccccc1 | > 15 | > 280 | 110 |  | > 280 | > 280
COc1cc(CC(=O)NCCCCNCCCNC(=O)Cc2ccc(O)c(OC)c2)ccc1O | > 8.5 | > 150 | 150 |  | > 150 | > 150
COc1cc(CC(=O)NCCN2CCOCC2)ccc1O | > 12 | > 220 | 150 |  | 210 | > 220
COc1cc(CC(=O)NCCCCNC(=O)Cc2ccc(O)c(OC)c2)ccc1O | > 12 | > 220 | 210 |  | > 220 | > 220
O=C(Cc1ccccc1)NCCCOCCOCCOCCCNC(=O)Cc1ccccc1 | > 11 | > 200 | 63 |  | > 200 | > 200
O=C(Cc1ccc(O)c(O)c1)NCCCCNC(=O)Cc1ccc(O)c(O)c1 | > 13 | > 230 | 3.3 |  | 130 | > 230
O=C(Cc1cccc(O)c1)NCCCNCCNC(=O)Cc1cccc(O)c1 | > 10 | > 180 | 120 |  | > 180 | > 180
O=C(Cc1ccc(O)c(O)c1)NCCCNCCNC(=O)Cc1ccc(O)c(O)c1 | > 9.4 | > 170 | 7.5 | Non-toxic | 140 | > 170
COc1cc(CC(=O)NCCCNCCNC(=O)Cc2ccc(O)c(OC)c2)ccc1O | > 8.9 | > 160 | 110 |  | > 160 | > 160
COc1cc(CC(=O)NCCCOCCOCCOCCCNC(=O)Cc2ccc(O)c(OC)c2)ccc1O | > 9.1 | > 160 | 110 |  | > 160 | 150
COc1cc([C@@H]2c3cc4c(cc3[C@H](O)[C@H]3COC(=O)[C@H]23)OCO4)cc(OC)c1OC [PODOFILOX] |  |  |  |  | 0.019 | 
O=C(Cc1ccc(O)c(O)c1)NCCCOCCOCCOCCCNC(=O)Cc1ccc(O)c(O)c1 | > 9.6 | > 170 | 5.2 |  | 96 | > 170

Now from value to compound, other results behind:

IC50 (Plasmodium falciparum) [µM] | IC50 (Trypanosoma cruzi) [µM] | IC50 [3] [µM] | Compound | Activity (L6 [1]) | IC50 (L6 [2]) [µM] | IC50 (Leishmania donovani) [µM]
0.14 | > 140 | 96 | O=C(Cc1ccccc1)NCCCNCCCCNCCCNC(=O)Cc1ccccc1 | Non-toxic | > 140 | 90
0.17 | > 130 | 87 | O=C(Cc1cccc(O)c1)NCCCNCCCCNCCCNC(=O)Cc1cccc(O)c1 | Non-toxic | > 130 | > 130
35 |  |  | NCCCNCCCCNCCCNC(=O)Cc1ccccc1 |  | 94 | 
> 6.8 | > 120 | 120 | COc1cc(CC(=O)NCCCNCCNCCCNC(=O)Cc2ccc(O)c(OC)c2)ccc1O |  | > 120 | > 120
0.89 | > 120 | 78 | COc1cc(CC(=O)NCCCNCCCCNCCCNC(=O)Cc2ccc(O)c(OC)c2)ccc1O | Non-toxic | > 120 | > 120
3.6 | > 170 | 120 | O=C(Cc1ccc(O)cc1)NCCCCNCCCNC(=O)Cc1ccc(O)cc1 |  | > 170 | > 170
0.61 | > 130 | 49 | O=C(Cc1ccccc1O)NCCCNCCNCCCNC(=O)Cc1ccccc1O | Non-toxic | > 130 | > 130
0.0086 | > 130 | 51 | O=C(Cc1ccccc1O)NCCCNCCCCNCCCNC(=O)Cc1ccccc1O | Non-toxic | > 130 | 110
7.9 | > 160 | 5.9 | O=C(Cc1ccc(O)c(O)c1)NCCCCNCCCNC(=O)Cc1ccc(O)c(O)c1 | Non-toxic | 97 | > 160
0.019 | 31 | 38 | COc1ccc(OC)c(CC(=O)NCCCNCCCCNCCCNC(=O)Cc2cc(OC)ccc2OC)c1 | Non-toxic | 88 | 35
8 |  |  | O=C(Cc1ccccc1)NCCCNCCCCNCCCNC(=O)C(F)(F)F |  | 110 | 
4.8 | > 120 | 3.2 | O=C(Cc1ccc(O)c(O)c1)NCCCNCCCCNCCCNC(=O)Cc1ccc(O)c(O)c1 | Non-toxic | 85 | > 120
0.14 | > 130 | 86 | O=C(Cc1ccc(O)cc1)NCCCNCCCCNCCCNC(=O)Cc1ccc(O)cc1 | Non-toxic | 130 | > 130
